We go through 14 molecules from patent US20240116985A1, “STAPLED PEPTIDES AND METHODS THEREOF” (priority 2020, published 2024).

Each structure is given as a SMILES string.

The experiment concerns the target T1, full-length beta-Catenin (Uniprot ID P35222) (Homo sapiens, UniProt P35222).
T1 construct: 10 nM full-length beta-Catenin (Uniprot ID P35222)
T1 sequence (P35222 1-781): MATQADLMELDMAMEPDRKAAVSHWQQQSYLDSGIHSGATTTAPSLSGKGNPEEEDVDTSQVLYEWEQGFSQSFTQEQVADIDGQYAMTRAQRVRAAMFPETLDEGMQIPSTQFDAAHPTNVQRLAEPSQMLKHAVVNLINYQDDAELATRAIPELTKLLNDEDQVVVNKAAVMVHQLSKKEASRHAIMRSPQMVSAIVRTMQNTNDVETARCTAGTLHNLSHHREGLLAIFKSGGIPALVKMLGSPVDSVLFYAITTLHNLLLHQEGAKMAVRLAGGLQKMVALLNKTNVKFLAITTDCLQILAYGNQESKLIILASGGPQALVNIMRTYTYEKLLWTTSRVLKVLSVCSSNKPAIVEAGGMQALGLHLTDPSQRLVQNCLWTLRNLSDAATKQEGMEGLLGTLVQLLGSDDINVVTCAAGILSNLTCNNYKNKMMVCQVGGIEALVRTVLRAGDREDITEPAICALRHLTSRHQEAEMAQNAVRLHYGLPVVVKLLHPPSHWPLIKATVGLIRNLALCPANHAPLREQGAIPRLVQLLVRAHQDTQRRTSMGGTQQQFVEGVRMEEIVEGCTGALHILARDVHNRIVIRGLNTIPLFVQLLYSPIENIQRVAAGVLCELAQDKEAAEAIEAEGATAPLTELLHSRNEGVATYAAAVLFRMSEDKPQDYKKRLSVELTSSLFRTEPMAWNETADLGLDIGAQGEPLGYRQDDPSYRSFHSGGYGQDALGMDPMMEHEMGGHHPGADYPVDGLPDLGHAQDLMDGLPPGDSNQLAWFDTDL
Kind of experiment: Fluorescence polarization IC50 (beta-catenin / 5FAM-TCF4 10-53 competition). In kind it is binding. The note with it: fluorescence polarization; read-out: beta-Catenin FP IC50. Background: Polarisation of emitted light reports the rotation of a fluorescent probe.

Consider `CC(=O)N1CCC[C@]12CC=CCCCC1(CCCC=CCCCOC(=O)N3CC[C@@](C(=O)N[C@@H](Cc4ccccc4)C(=O)N[C@@H](Cc4csc5ccccc45)C(N)=O)(C3)NC(=O)[C@H](CC(N)=O)NC(=O)[C@H](Cc3ccccc3)NC(=O)[C@H](C)NC(=O)[C@H](CCCCNC(C)C)NC(=O)[C@H](CCC(N)=O)NC(=O)[C@H](CC(=O)O)NC1=O)NC(=O)[C@H](CC1CCCCC1)NC(=O)[C@H](CC(N)=O)NC2=O` (stereo partly drawn) [I-2073, Ac-PL3-Asn-Cha-B5-Asp-Gln-iPrLys-Ala-Phe-Asn-PyrS2-Phe-BztA-NH2], for which the IC50 (usually the concentration that gives 50% inhibition) amounted to 398 nM.
The figure for `CC(=O)N1CCC[C@]12CC=CCCCC1(CCCC=CCCCOC(=O)N3CC[C@@](C(=O)N[C@@H](Cc4ccsc4)C(=O)N[C@@H](Cc4csc5ccccc45)C(=O)N[C@@H](CCO)C(N)=O)(C3)NC(=O)[C@H](CC(N)=O)NC(=O)[C@H](Cc3ccccc3)NC(=O)[C@H](C)NC(=O)[C@H](CCCCNC(C)C)NC(=O)[C@H](CCC(N)=O)NC(=O)[C@H](CC(=O)O)NC1=O)NC(=O)[C@H](CC1CCCCC1)NC(=O)[C@H](CC(N)=O)NC2=O` (stereo partly drawn) [I-2074, Ac-PL3-Asn-Cha-B5-Asp-Gln-iPrLys-Ala-Phe-Asn-PyrS2-3Thi-BztA-Hse-NH2] is 789 nM.
The figure for `CC(=O)N1CCC[C@]12CC=CCCCC1(CCCC=CCCCOC(=O)N3CC[C@@](C(=O)N[C@@H](Cc4cccs4)C(=O)N[C@@H](Cc4csc5ccccc45)C(=O)N[C@@H](CCO)C(N)=O)(C3)NC(=O)[C@H](CC(N)=O)NC(=O)[C@H](Cc3ccccc3)NC(=O)[C@H](C)NC(=O)[C@H](CCCCNC(C)C)NC(=O)[C@H](CCC(N)=O)NC(=O)[C@H](CC(=O)O)NC1=O)NC(=O)[C@H](CC1CCCCC1)NC(=O)[C@H](CC(N)=O)NC2=O` (stereo partly drawn) [I-2075, Ac-PL3-Asn-Cha-B5-Asp-Gln-iPrLys-Ala-Phe-Asn-PyrS2-2Thi-BztA-Hse-NH2] is 2330 nM; for `CC(=O)N1CCC[C@]12CC=CCCCC1(CCCC=CCCCOC(=O)N3CC[C@@](C(=O)N[C@@H](Cc4ccccc4C(F)(F)F)C(=O)N[C@@H](Cc4csc5ccccc45)C(=O)N[C@@H](C)C(N)=O)(C3)NC(=O)[C@H](CC(C)C)NC(=O)[C@H](Cc3ccccc3)NC(=O)[C@@H](C)NC(=O)[C@H](C)NC(=O)[C@H](Cc3cccc(C(=O)O)c3)NC(=O)[C@H](CC(=O)O)NC1=O)NC(=O)[C@H](CC(C)(C)C)NC(=O)[C@H](CC(=O)O)NC2=O` (stereo partly drawn) [I-2099, Ac-PL3-Asp-Npg-B5-Asp-3COOHF-Ala-dAla-Phe-Leu-PyrS2-2F3MeF-BztA-Ala-NH2] it is 325 nM.
In the case of `CC(=O)N1CCC[C@]12CC=CCCCC1(CCCC=CCCCOC(=O)N3CC[C@@](C(=O)N[C@@H](Cc4ccccc4C(F)(F)F)C(=O)N[C@@H](Cc4csc5ccccc45)C(=O)N[C@H](C)C(N)=O)(C3)NC(=O)[C@H](CC(C)C)NC(=O)[C@H](Cc3ccccc3)NC(=O)[C@@H](C)NC(=O)[C@H](C)NC(=O)[C@H](Cc3cccc(C(=O)O)c3)NC(=O)[C@H](CC(=O)O)NC1=O)NC(=O)[C@H](CC(C)(C)C)NC(=O)[C@H](CC(=O)O)NC2=O` (stereo partly drawn) [I-2101, Ac-PL3-Asp-Npg-B5-Asp-3COOHF-Ala-dAla-Phe-Leu-PyrS2-2F3MeF-BztA-dAla-NH2] it was 424 nM; in that of `CC(=O)N1CCC[C@]12CC=CCCCC1(CCCC=CCCCOC(=O)N3CC[C@@](C(=O)N[C@@H](Cc4ccccc4)C(=O)N[C@@H](Cc4csc5ccccc45)C(=O)N[C@H](C(N)=O)[C@@H](C)O)(C3)NC(=O)[C@H](CC(N)=O)NC(=O)[C@H](Cc3ccccc3)NC(=O)[C@H](C)NC(=O)[C@H](CCCCNC(C)C)NC(=O)[C@H](CCC(N)=O)NC(=O)[C@H](CC(=O)O)NC1=O)NC(=O)[C@H](CC1CCCCC1)NC(=O)[C@H](CC(N)=O)NC2=O` (stereo partly drawn) [I-2112, Ac-PL3-Asn-Cha-B5-Asp-Gln-iPrLys-Ala-Phe-Asn-PyrS2-Phe-BztA-Thr-NH2], 501 nM.
Consider `CC(=O)N1CCC[C@]12CC=CCCCC1(CCCC=CCCCOC(=O)N3CC[C@@](C(=O)N[C@@H](Cc4ccccc4)C(=O)N[C@@H](Cc4csc5ccccc45)C(=O)N[C@@H](CCC(N)=O)C(N)=O)(C3)NC(=O)[C@H](CC(N)=O)NC(=O)[C@H](Cc3ccccc3)NC(=O)[C@H](C)NC(=O)[C@H](CCCCNC(C)C)NC(=O)[C@H](CCC(N)=O)NC(=O)[C@H](CC(=O)O)NC1=O)NC(=O)[C@H](CC1CCCCC1)NC(=O)[C@H](CC(N)=O)NC2=O` (stereo partly drawn) [I-2113, Ac-PL3-Asn-Cha-B5-Asp-Gln-iPrLys-Ala-Phe-Asn-PyrS2-Phe-BztA-Gln-NH2], for which the IC50 was found to be 164 nM.
With `CC(=O)N1CCC[C@]12CC=CCCCC1(CCCC=CCCCOC(=O)N3CC[C@@](C(=O)N[C@@H](Cc4ccsc4)C(=O)N[C@@H](Cc4csc5ccccc45)C(=O)N[C@@H](CCC(N)=O)C(N)=O)(C3)NC(=O)[C@H](CCO)NC(=O)[C@H](Cc3cccc(C(=O)O)c3)NC(=O)[C@H](C)NC(=O)[C@H](C)NC(=O)[C@H](Cc3ccc(O)cc3)NC(=O)[C@H](CC(=O)O)NC1=O)NC(=O)[C@H](CC(C)(C)C)NC(=O)[C@H](CC(=O)O)NC2=O` (stereo partly drawn) [I-2124, Ac-PL3-Asp-Npg-B5-Asp-Tyr-Ala-Ala-3COOHF-Hse-PyrS2-3Thi-BztA-Gln-NH2], the IC50 is 29 nM.
With `CC(=O)N1CCC[C@]12CC=CCCCC1(CCCC=CCCCOC(=O)N3CC[C@@](C(=O)N[C@@H](Cc4ccsc4)C(=O)N[C@@H](Cc4csc5ccccc45)C(=O)N[C@@H](CCC(N)=O)C(N)=O)(C3)NC(=O)[C@H](CCO)NC(=O)[C@H](Cc3cccc(C(=O)O)c3)NC(=O)[C@H](C)NC(=O)[C@H](C)NC(=O)[C@H](Cc3ccc(O)cc3)NC(=O)[C@H](CC(=O)O)NC1=O)NC(=O)[C@H](CC(C)(C)C)NC(=O)[C@H](CC(=O)O)NC2=O` (stereo partly drawn) [I-2125, Ac-PL3-Asp-Npg-B5-Asp-Tyr-Ala-Ala-3COOHF-Hse-PyrS2-3Thi-BztA-Gln-NH2], the IC50 was found to be 26 nM.
As to `CC(=O)N1CCC[C@]12CC=CCCCC1(CCCC=CCCCOC(=O)N3CC[C@@](C(=O)N[C@@H](Cc4ccsc4)C(=O)N[C@@H](Cc4csc5ccccc45)C(=O)N[C@@H](CCC(N)=O)C(N)=O)(C3)NC(=O)[C@H](CC(N)=O)NC(=O)[C@H](Cc3cccc(C(=O)O)c3)NC(=O)[C@H](C)NC(=O)[C@H](C)NC(=O)[C@H](Cc3c[nH]c4ccccc34)NC(=O)[C@H](CC(=O)O)NC1=O)NC(=O)[C@H](CC(C)(C)C)NC(=O)[C@H](CC(=O)O)NC2=O` (stereo partly drawn) [I-2127, Ac-PL3-Asp-Npg-B5-Asp-Trp-Ala-Ala-3COOHF-Asn-PyrS2-3Thi-BztA-Gln-NH2], the IC50 was found to be 36 nM.
In the case of `CC(=O)N1CCC[C@]12CC=CCCCC1(CCCC=CCCCOC(=O)N3CC[C@@](C(=O)N[C@@H](Cc4ccsc4)C(=O)N[C@@H](Cc4csc5ccccc45)C(=O)N[C@@H](CCC(N)=O)C(N)=O)(C3)NC(=O)[C@H](CC(C)C)NC(=O)[C@H](Cc3cccc(C(=O)O)c3)NC(=O)[C@H](C)NC(=O)[C@H](C)NC(=O)[C@H](Cc3c[nH]c4ccccc34)NC(=O)[C@H](CC(=O)O)NC1=O)NC(=O)[C@H](CC(C)(C)C)NC(=O)[C@H](CC(=O)O)NC2=O` (stereo partly drawn) [I-2129, Ac-PL3-Asp-Npg-B5-Asp-Trp-Ala-Ala-3COOHF-Leu-PyrS2-3Thi-BztA-Gln-NH2] it was 105 nM; in that of `CC(=O)N1CCC[C@]12CC=CCCCC1(CCCC=CCCCOC(=O)N3CC[C@@](C(=O)N[C@@H](Cc4ccsc4)C(=O)N[C@@H](Cc4csc5ccccc45)C(=O)N[C@@H](CCC(N)=O)C(N)=O)(C3)NC(=O)[C@H](CC(N)=O)NC(=O)[C@H](Cc3ccccc3)NC(=O)[C@H](C)NC(=O)[C@H](C)NC(=O)[C@H]([C@@H](C)O)NC(=O)[C@H](CC(N)=O)NC1=O)NC(=O)[C@H](CC(C)(C)C)NC(=O)[C@H](CN(CC(=O)O)CC(F)(F)F)NC2=O` (stereo partly drawn) [I-2130, Ac-PL3-TfeGA-Npg-B5-Asn-Thr-Ala-Ala-Phe-Asn-PyrS2-3Thi-BztA-Gln-NH2], 4920 nM; in that of `CC(=O)N1CCC[C@]12CC=CCCCC1(CCCC=CCCCOC(=O)N3CC[C@@](C(=O)N[C@@H](Cc4ccsc4)C(=O)N[C@@H](Cc4csc5ccccc45)C(=O)N[C@@H](CCC(N)=O)C(N)=O)(C3)NC(=O)[C@H](CC(N)=O)NC(=O)[C@H](Cc3ccccc3)NC(=O)[C@H](C)NC(=O)[C@H](C)NC(=O)[C@H]([C@@H](C)O)NC(=O)[C@H](CC(N)=O)NC1=O)NC(=O)[C@H](CC(C)(C)C)NC(=O)[C@H](CN(CC(=O)O)CC(F)(F)F)NC2=O` (stereo partly drawn) [I-2131, Ac-PL3-TfeGA-Npg-B5-Asn-Thr-Ala-Ala-Phe-Asn-PyrS2-3Thi-BztA-Gln-NH2], 3220 nM.
The figure for `CC(=O)N1CCC[C@]12CC=CCCCC1(CCCC=CCCCOC(=O)N3CC[C@@](C(=O)N[C@@H](Cc4ccsc4)C(=O)N[C@@H](Cc4csc5ccccc45)C(=O)N[C@@H](CCC(N)=O)C(N)=O)(C3)NC(=O)[C@H](CC(N)=O)NC(=O)[C@H](Cc3ccccc3)NC(=O)[C@H](C)NC(=O)[C@H](C)NC(=O)[C@H]([C@@H](C)O)NC(=O)[C@H](CC(N)=O)NC1=O)NC(=O)[C@H](CC(C)(C)C)NC(=O)[C@H](CCCC(=O)O)NC2=O` (stereo partly drawn) [I-2133, Ac-PL3-Aad-Npg-B5-Asn-Thr-Ala-Ala-Phe-Asn-PyrS2-3Thi-BztA-Gln-NH2] is 8750 nM.
